Source: patent publication US20070203220A1, “Inhibitors Of PAI-1 For Treatment Of Muscular Conditions” (Wyeth, priority 2006, published 2007)

Tests used:
[1] = tested on: mdx mice; assay: mdx mouse model of muscular dystrophy, drug in rodent chow for 9 months, muscle and body weights; type: in vivo; conditions: female mdx mice
Excerpt: The mdx mouse is a genetic model of Duchenne and Becker muscular dystrophies, providing a model system of muscle degeneration with aberrant regeneration. In this model, a nonsense mutation in the dystrophin gene results in the absence of dystrophin from the sarcolemma, and subsequent muscle fiber necrosis. Conversely, mice deficient in plasminogen activator inhibitor-1 have improved skeletal muscle regeneration. It was hypothesized that a small molecule PAI-1 inhibitor, such as, for example {1-Benzyl-5-[4-(trifluoromethoxy)phenyl]-1H-indol-3-yl}(oxo)acetic acid could potentially produce beneficial effects on the skeletal muscle of mdx mice.
Female mdx mice were purchased from a commercial vendor, and divided into 2 groups of equal body weight. {1-Benzyl-5-[4-(trifluoromethoxy)phenyl]-1H-indol-3-yl}(oxo)acetic acid was formulated into rodent chow at a concentration of 1 mg of drug per 1 gram of food (1 mg/g), and this mixture was formed into food pellets. A standard, pelleted rodent chow was used as the control diet. One group of mice received the drug-containing diet, while the other group received the control diet ad libitum. Each diet was coded, and the animal technicians remained blinded to the composition of the diets throughout the study.
Eight mice received either the control or drug-containing diet for 9 months. At the end of the study, the mice were killed, and muscle and body weights were measured. There was no change in body weight between groups (28.1±0.45 g for drug-treated vs. 28.3±0.69 g for Control). […] Because muscular dystrophy is a wasting disease, changes in muscle weight are routinely expressed per unit of body weight in preclinical studies. Therefore, the individual weight of each gastrocnemius muscle (mg) was expressed relative to total body weight (g). […] In drug-treated mice, muscle weight per unit of body weight was 5.02±0.13 mg/g, while in mice on the control diet, this value was 4.56 mg/g±0.20 (p=0.07).

| melting point | SMILES | difference in group means of gastrocnemius muscle weight, drug-treated vs control ([1]; drug in chow 1 mg/g) [%] | muscle weight per unit of body weight (gastrocnemius) ([1]; drug in chow 1 mg/g ad libitum, p=0.07 vs control) [mg/g] | gastrocnemius muscle weight ([1]; drug in chow 1 mg/g ad libitum, p=0.11 vs control) [mg] |
| --- | --- | --- | --- | --- |
| 213 to 214 °C (dec.) | CC(=O)c1ccc(-c2ccc3c(c2)c(C(=O)C(=O)O)cn3Cc2ccccc2)cc1 | – | – | – |
| – | O=C(O)C(=O)c1cn(Cc2ccccc2)c2ccc(-c3ccc(OC(F)(F)F)cc3)cc12 [{1-Benzyl-5-[4-(trifluoromethoxy)phenyl]-1H-indol-3-yl}(oxo)acetic acid] | 8.6 | 5.02 ± 0.13 | 141.0 ± 4.1 |
| 233 to 235 °C (dec.) | Cn1cc(C(=O)C(=O)O)c2ccc(-c3ccc(OC(F)(F)F)cc3)cc21 | – | – | – |
| 195 to 196 °C | Cc1ccc(Cn2cc(C(=O)C(=O)O)c3cc(-c4ccccc4)ccc32)cc1 | – | – | – |
